Literature values, collected in patent US10751019B2, “Determining a brain condition using early time frame PET image analysis” (ADM DIAGNOSTICS, LLC, priority 2015, dated 2020).

conditions: PET tracer in brain, time after tracer injection; varies with tracer, region of accumulation and target load

Structure (SMILES)	time to reach equilibrium
[11CH3]Nc1ccc(-c2nc3ccc(O)cc3s2)cc1 [11C-PiB]	about 45 minutes
CNc1ccc(/C=C/c2ccc(OCCOCCOCCF)nc2)cc1 [florbetapir]	40 to 45 min
CNc1ccc(-c2nc3ccc(O)cc3s2)cc1F [flutemetamol]	about 80 minutes
